Source: ChEMBL document CHEMBL1126012 (J Med Chem, 1992)
pIC50: −log10 of the molar value.

Biological target: Sodium-dependent dopamine transporter (Rattus norvegicus, UniProt P23977)
Assay: Inhibition of [3H]3-beta-(p-fluorophenyl)tropane-2beta-carboxylic acid methyl ester [3H]7a binding to Dopamine transporter of rat striatal membranes
Assay type: cell membranes, Membrane

Sequence of Sodium-dependent dopamine transporter (P23977 whole entry): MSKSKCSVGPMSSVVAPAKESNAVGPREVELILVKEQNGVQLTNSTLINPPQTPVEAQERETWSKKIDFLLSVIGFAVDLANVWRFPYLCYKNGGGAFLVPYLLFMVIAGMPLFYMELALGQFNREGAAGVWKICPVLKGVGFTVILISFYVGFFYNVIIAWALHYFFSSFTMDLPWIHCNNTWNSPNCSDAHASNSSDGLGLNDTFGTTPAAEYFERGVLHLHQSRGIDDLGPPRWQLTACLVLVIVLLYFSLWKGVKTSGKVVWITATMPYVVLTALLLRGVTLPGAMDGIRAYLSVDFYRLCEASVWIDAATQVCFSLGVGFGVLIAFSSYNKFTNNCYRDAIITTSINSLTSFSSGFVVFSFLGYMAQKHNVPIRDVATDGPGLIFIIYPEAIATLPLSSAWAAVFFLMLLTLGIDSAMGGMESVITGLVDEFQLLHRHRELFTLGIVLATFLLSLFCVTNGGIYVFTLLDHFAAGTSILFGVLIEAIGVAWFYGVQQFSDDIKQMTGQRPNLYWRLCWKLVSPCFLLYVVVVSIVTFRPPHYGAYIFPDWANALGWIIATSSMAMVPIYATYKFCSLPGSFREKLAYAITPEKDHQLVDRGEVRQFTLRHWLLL

SMILES: CN1CC2CC(OC(=O)c3ccccc3)CC1C2 (stereo in doubt; 4d-(+))
- pIC50: 5.53

SMILES: COC(=O)C1C(OC(=O)c2ccccc2)C[C@H]2CCC1[N+]2(C)C (some centres undefined)
- pIC50: 4.97

SMILES: COC(=O)C1C(OC(=O)c2ccccc2)C[C@H]2CCC1N2C(C)=O (some centres undefined)
- pIC50: 5.47

SMILES: CN1CC2CC1C[C@@H](OC(=O)c1ccccc1)C2 (stereo in doubt; 4c)
- pIC50: 4.70

SMILES: CN1CC2CC(OC(=O)c3ccccc3)CC1C2 (stereo in doubt; 4d-(-))
- pIC50: 5.55

SMILES: COC(=O)C1C2CC[C@H](CC1OC(=O)c1ccccc1)N2 (some centres undefined)
- pIC50: 6.52

SMILES: COC(=O)C1C(OC(=O)c2ccccc2)C[C@H]2CCC1N2Cc1ccccc1 (some centres undefined)
- pIC50: 6.18

SMILES: CN1CC2CC1C[C@@H](OC(=O)c1ccccc1)C2 (stereo in doubt; 4d)
- pIC50: 5.31

SMILES: CN1[C@@H]2CC[C@H]1C[C@H](OC(=O)c1ccccc1)C2
- pIC50: 4.67
